According to PubChem BioAssay AID720642 (The Scripps Research Institute Molecular Screening Center, 2013):
Activity calls are given as the source filed them.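 The calls were made as follows: active = EC50 activation potency at or below 10 µM in this mu opioid counterscreen; inactive = EC50 above 10 µM or never reaching half activation.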

Target: Mu-type opioid receptor (Homo sapiens) (UniProt P35372)
Assay: mu opioid receptor activation potency – cell-based, luminescence, dose response, powder samples, counter-screen for mouse HTR2A agonist project, late-stage follow-up (AID 720642)
Conditions: U2OS OPRM1 beta-arrestin complementation

Sequence of Mu-type opioid receptor (Homo sapiens) (P35372 whole entry, looked up): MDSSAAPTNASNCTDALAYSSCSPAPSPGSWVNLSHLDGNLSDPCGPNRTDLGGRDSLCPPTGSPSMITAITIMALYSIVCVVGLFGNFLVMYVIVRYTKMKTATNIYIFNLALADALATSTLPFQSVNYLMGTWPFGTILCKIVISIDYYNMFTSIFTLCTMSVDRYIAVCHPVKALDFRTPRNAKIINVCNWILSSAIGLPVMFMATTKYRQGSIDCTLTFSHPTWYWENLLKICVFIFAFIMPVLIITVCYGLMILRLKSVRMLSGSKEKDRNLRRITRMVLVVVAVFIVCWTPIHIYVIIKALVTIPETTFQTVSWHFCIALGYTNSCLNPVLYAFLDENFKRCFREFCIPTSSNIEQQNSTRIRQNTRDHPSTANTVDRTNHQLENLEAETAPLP

Row | Structure (SMILES) | EC50
1 | CCOC(=O)C1CCN(Cc2cccc(Oc3ccc(Cl)cc3)c2)CC1 | > 92.5 µM (inactive)
2 | NC[C@@H]1O[C@H](C23CC4CC(CC(C4)C2)C3)Cc2c1ccc(O)c2O | > 92.5 µM (inactive)
3 | c1ccc(CN2CCN(c3ncccn3)CC2)cc1 | > 92.5 µM (inactive)
4 | COc1cccc(-n2cc(CNCc3cn(C)nc3-c3ccccc3F)cn2)c1 | > 92.5 µM (inactive)
5 | COc1cc(Br)cc(CN2CCN(c3ncccn3)CC2)c1O | > 92.5 µM (inactive)
6 | CC(=O)N1CCc2cc(C(=O)CN3CCN(c4cccc(Cl)c4)CC3)ccc21 | > 92.5 µM (inactive)
7 | CN(c1ccc(C(=O)N2CCN(Cc3ccccc3)CC2)cc1)S(=O)(=O)c1ccc(Cl)cc1 | > 92.5 µM (inactive)
8 | OCC1(Cc2cccc(C(F)(F)F)c2)CCN(Cc2cc3ccccc3o2)CC1 | > 92.5 µM (inactive)
9 | Clc1ccc(CN2CCN(c3ncccn3)CC2)cc1Cl | > 92.5 µM (inactive)
10 | Fc1cccc(CN2CCN(c3ncccn3)CC2)c1 | > 92.5 µM (inactive)
11 | CC(CCc1ccc(O)cc1)NCCc1ccc(O)c(O)c1 (centres undefined) | > 92.5 µM (inactive)
12 | COc1ccc(CN2CCN(c3ncccn3)CC2)c(C)c1C | > 92.5 µM (inactive)
13 | COc1ccc(CN2CCN(c3ccccn3)CC2)c(OC)c1 | > 92.5 µM (inactive)
14 | CC(COc1ccccc1)N1CCC(CO)(Cc2ccccc2)CC1 (centres undefined) | > 92.5 µM (inactive)
15 | CCn1c(=O)cc(SCC(=O)NCCCN2CCN(c3ccccc3F)CC2)c2ccccc21 | > 92.5 µM (inactive)
16 | O=C(CN1CCN(c2ccccn2)CC1)Nc1ccc(Oc2ccccc2)cc1 | > 92.5 µM (inactive)
17 | CC1CC(C)CN(CCOc2cccc(Cl)c2Cl)C1 (centres undefined) | > 92.5 µM (inactive)
18 | NC1CCc2cc(O)c(O)cc2C1 (centres undefined) | > 92.5 µM (inactive)
19 | OC(COc1ccc2cc(Br)ccc2c1)CN1CCN(c2ccccn2)CC1 (centres undefined) | > 92.5 µM (inactive)
20 | CC(=O)N1CCC(N2CCN(c3ccccc3F)CC2)CC1 | > 92.5 µM (inactive)
21 | Cc1cccc(CN2CCN(c3ccccn3)CC2)c1 | > 92.5 µM (inactive)
22 | Clc1ccccc1CN1CCN(c2ccccc2)CC1 | > 92.5 µM (inactive)
23 | Cn1cc(C(F)(F)F)nc1-c1ccc(OCC(O)CNCCOc2ccc(O)c(C(N)=O)c2)cc1 (centres undefined) | > 92.5 µM (inactive)
24 | COc1ccc(CN2CCN(C(=O)c3ccco3)CC2)cc1OCc1ccccc1 | > 92.5 µM (inactive)
25 | CCCN(CCC)C1CCc2cccc(O)c2C1 (centres undefined) | > 92.5 µM (inactive)
26 | CCOc1cc(CN2CCN(C(=O)c3ccco3)CC2)ccc1OC | > 92.5 µM (inactive)
27 | COc1cc(CN2CCN(c3ncccn3)CC2)cc(OC)c1 | > 92.5 µM (inactive)

Row | Structure (SMILES) | EC50
28 | Brc1ccc(CN2CCN(c3ccccn3)CC2)s1 | > 92.5 µM (inactive)
29 | CCOc1ccc(NC(=O)CCN2CCN(c3ccccc3F)CC2)cc1 | > 92.5 µM (inactive)
30 | Cc1cccc(CN2CCN(c3ncccn3)CC2)c1 | > 92.5 µM (inactive)
31 | Oc1ccc(CN2CCN(c3ncccn3)CC2)cc1 | > 92.5 µM (inactive)
32 | CCCN1CCC[C@H](c2cccc(O)c2)C1 | > 92.5 µM (inactive)
33 | Clc1ccccc1CN1CCN(c2ncccn2)CC1 | > 92.5 µM (inactive)
34 | Cc1ccc(CN2CCN(c3ccccn3)CC2)s1 | > 92.5 µM (inactive)
35 | Brc1cccc(CN2CCN(c3ncccn3)CC2)c1 | > 92.5 µM (inactive)
36 | Cc1ccc(CN2CCN(c3ncccn3)CC2)o1 | > 92.5 µM (inactive)
37 | COc1cccc(OCC(O)CN2CCN(c3ccccn3)CC2)c1 (centres undefined) | > 92.5 µM (inactive)
38 | CC(C)C[C@H]1C(=O)N2CCC[C@H]2[C@]2(O)O[C@](NC(=O)[C@@H]3C=C4c5cccc6[nH]c(Br)c(c56)CC4N(C)C3)(C(C)C)C(=O)N12 (some centres undefined) | > 92.5 µM (inactive)
39 | Cc1ccc(CN2CCN(c3ncccn3)CC2)c(C)c1 | > 92.5 µM (inactive)
40 | c1ccc(N2CCN(Cc3ccsc3)CC2)nc1 | > 92.5 µM (inactive)
41 | C=CCN1CCc2nc(N)sc2CC1 | > 92.5 µM (inactive)
42 | c1ccc(COc2ccc(CN3CCN(c4ccccn4)CC3)cc2)cc1 | > 92.5 µM (inactive)
43 | COc1ccc(CN2CCN(c3ncccn3)CC2)c(OC)c1 | > 92.5 µM (inactive)
44 | CC1(C)C(C=C(Cl)Cl)C1C(=O)N1CCN(Cc2ccccc2)CC1 (centres undefined) | > 92.5 µM (inactive)
45 | COc1ccc(CC2(CO)CCN(Cc3cc4ccccc4o3)CC2)cc1 | > 92.5 µM (inactive)
46 | Cc1ccsc1CN1CCN(c2ccccn2)CC1 | > 92.5 µM (inactive)
47 | Fc1ccccc1CN1CCN(c2ncccn2)CC1 | > 92.5 µM (inactive)
48 | Clc1ccc(CN2CCN(c3ncccn3)CC2)cc1 | > 92.5 µM (inactive)
49 | Fc1ccc(F)c(CN2CCN(c3ncccn3)CC2)c1 | > 92.5 µM (inactive)
50 | CCOC(=O)N1CCN(Cc2ccc(OCC(O)CN3CCCCC3)cc2)CC1 (centres undefined) | > 92.5 µM (inactive)
51 | O=C(c1ccco1)N1CCN(Cc2ccc(Cl)cc2)CC1 | > 92.5 µM (inactive)
52 | CCCN1C[C@H](CSC)C[C@@H]2c3cccc4[nH]cc(c34)C[C@H]21 | > 92.5 µM (inactive)
53 | CCc1ccc(CN2CCN(C(=O)c3ccco3)CC2)cc1 | > 92.5 µM (inactive)
54 | COc1ccccc1C(=O)NCCN1CCN(c2ccccc2)CC1 | > 92.5 µM (inactive)
